Patent US4452817A, “Anaesthetic compositions containing 2,6-diisopropylphenol” (Imperial Chemical Industries PLC, priority 1974, dated 1984)

Experiments:
mice [1] = assay: HD50 (anaesthesia, loss of righting reflex) and LD50 in mice, intravenous; settings: Mus musculus, read-out: HD50 (dose required to cause anaesthesia, loss of righting reflex for at least 30 seconds, in 5 out of 10 mice)
Procedure: (§1) Each mouse is various groups of 10 mice is injected intravenously with a 1% sterile solution of 2,6-diisopropylphenol as described in Example 14, the total dose administered being the same within any group but differing between groups.

[2] = as above; settings: mouse, in vivo; for LD50: mice
Procedure: as §1

mice [3] = assay: Mean sleeping time of mice after twice the HD50, intravenous; type: in vivo, mouse; settings: for 2,6-diisopropylphenol 27 mg./kg., standard deviation ±0.59 minutes
Procedure: Each of 10 mice is injected intravenously with 27 mg./kg. bodyweight (twice the HD50) of 2,6-diisopropylphenol as a 1% sterile solution described in Example 14.

cat [4] = settings: 10 mg./kg. i.v., topical anaesthetic applied to the larynx
Excerpt: A cat is anaesthetised exactly as described in Example 17. […] Anaesthesia is thereafter maintained with an inhalation anaesthetic delivered through an Ayre's T-piece circuit.

[5] = test system: mice, rats, rabbits, cats, rhesus or pigtail monkeys, pigs, sheep, horses, or cattle; assay: Intravenous anaesthesia in various animal species; type: in vivo
Procedure: Anaesthesia is produced in less than 1 minute and lasts, depending upon the species and the dose, from 3 to 25 minutes. […] The compound may also be administered intramuscularly.

cat [6] = settings: 5 cats, 2% solution
cat [7] = settings: 10 mg./kg. i.v. plus four supplementary i.v. injections each of 2.0 mg./kg.
Excerpt: A cat weighing 2.5 kg. is anaesthetised exactly as described in Example 17.

cat [8] = assay: Intramuscular anaesthesia in a cat (Example 20); type: in vivo; settings: 35 mg./kg. intramuscularly
Procedure: Righting reflexes are lost after 15 minutes, after a further 25 minutes anaesthesia has deepened sufficiently to allow intubation to be carried out. Muscle tone returns after a further 60 minutes and thereafter recovery is uneventful.

pigtail monkey = settings: 2% solution
Procedure: A 2% sterile solution of 2,6-diisopropylphenol prepared as described in Example 14 is administered intravenously to a pigtail monkey weighing 6.8 kg. at a rate of 0.05 mg. of phenol/kg. bodyweight/second until a dose of 34 mg. (5 mg./kg. bodyweight) of the phenol has been injected.

[9] = LD50 (dose required to kill 5 out of 10 mice), intravenous, 2,6-diisopropylphenol as 1% sterile solution of Example 14
[10] = intravenous, single dose of between 2.5 and 10 mg. per kg. bodyweight

## CCCC(C)C1(CC)C(=O)NC(=S)NC1=O (centres unmarked) [thiopentone sodium, reference compound]
Mice [1]
  ED50: 23.5 mg/kg
[2]
  selectivity ratio: 4.26
[2]; [9]
  LD50: 100 mg/kg
Mice [3]
  Mean sleeping time after twice the HD50: 5.97 ± 1.63 min

## CC(C)c1cccc(C(C)C)c1O [2,6-diisopropylphenol]
Cat [4]
  Depth of anaesthesia: sufficient depth to allow intubation of the trachea
Mice [1]
  ED50: 13.5 mg/kg
[2]
  selectivity ratio: 4.14
[2]; [9]
  LD50: 56 mg/kg
[2]; LD50 dose in mice (general description)
  LD50: 65 mg/kg
[5]; all animals, intravenous, 2.5 to 10 mg. per kg.
  Quality of recovery: normal and rapid
[5]; at anaesthetic doses
  Adverse side-effects: no adverse side-effects are noted
[5]; [10]
  Quality of anaesthesia produced: smooth and rapid anaesthesia
  Time in which anaesthesia is produced: less than 1 minute
Mice [3]
  Mean sleeping time after twice the HD50: 4.29 min
Cat [6]; 10 mg./kg. i.v. at 0.05 mg./kg./second
  Induction of anaesthesia: rapid and free from excitment
Cat [6]; 10 mg./kg. i.v.
  Muscle relaxation: muscle relaxation is produced
  Quality of further recovery: smooth and rapid
  Spinal reflexes: spinal reflexes are depressed
  Time to return of response to painful stimulation: approximately 10 minutes
Cat [6]; 10 mg./kg. i.v., standard deviation ±7.35 minutes
  Mean time from induction to reappearance of righting reflexes: 34 min
Cat [6]; 10 mg./kg. i.v., ±10.29 minutes
  Mean time after induction until cat is able to stand again: 42.6 min
Cat [7]
  Quality of recovery after the operation: rapid
  Time after completion of the operation until cat is able to stand: 35 min
Cat [7]; 2% solution
  Maintenance of anaesthesia during 45 minute laparotomy: anaesthesia is maintained during that time
Cat [8]; 2% solution
  Further time (after intubation depth) until muscle tone returns: 60 min
  Further time after loss of righting reflexes until anaesthesia is deep enough for intubation: 25 min
  Quality of recovery: uneventful
  Time to loss of righting reflexes: 15 min
Cat [8]; during the subsequent 7 days
  Pain or lesion at the site of injection: No pain or lesion at the site of injection is observed
Pigtail monkey; 5 mg./kg. i.v. at 0.05 mg./kg./second
  Induction of anaesthesia: smooth and rapid
Pigtail monkey; 5 mg./kg. i.v.
  Duration of anaesthesia: approximately 6 minutes
  Muscle relaxation: muscle relaxation is produced
  Quality of recovery: rapid
  Spinal reflexes: spinal reflexes are depressed
  Time after induction at which recovery is almost complete: 16 min
